We go through 18 compounds from patent US9725445B2, “Cycloalkyl nitrile pyrazolo pyridones as Janus kinase inhibitors” (Merck Sharp & Dohme Corp., priority 2013, dated 2017).

One assay has as its target JAK1 (Homo sapiens (Human), UniProt P23458). The assay is described as follows: Jak biochemical HTRF assay, JAK1. As to conditions: HTRF biochemical assay, recombinant GST-tagged catalytic domain; read-out: JAK1 IC50. (TR-FRET usually uses a lanthanide donor and a delayed reading to cut background.)
The target of a further assay is JAK2 (Homo sapiens (Human), UniProt O60674). The assay is described as follows: Jak biochemical HTRF assay, JAK2. The note with it: HTRF biochemical assay, recombinant GST-tagged catalytic domain; read-out: JAK2 IC50. Here is the method:
Jak Biochemical HTRF Assay Protocol
The ability of compounds to inhibit the activity of JAK1, JAK2, JAK3, and Tyk2 was measured using a recombinant purified GST-tagged catalytic domain for each enzyme (Invitrogen JAK1 #M4290, JAK2 #M4290, JAK3 #M4290, Tyk2 #M4290) in an HTRF format biochemical assay. […] The basic assay protocol is as follows: First, 250 nL of diluted compounds in DMSO were dispensed into the wells of a dry 384-well Black plate (Greiner #781076) using a Labcyte Echo 555 acoustic dispenser. Subsequent reagent additions employed an Agilent Bravo. […] After equilibration, 2 μL of 10×ATP in 1× assay buffer was added to initiate the kinase reaction and the plates were shaken and then incubated at room temperature for 120 minutes. […] Plates were shaken and centrifuged and then incubated 60 minutes at room temperature and then read on a Perkin Elmer Envision (λex=337 nm, λem=665 and 615 nm, TRF delay time=20 μs). HTRF signal=10,000*665 nm reading/615 nm reading. After normalization to untreated controls, the percent inhibition of the HTRF signal at each compound concentration was calculated. The plot of percent inhibition versus the log of compound concentration was fit with a 4-parameter dose response equation to calculate IC50 values.
Final Reaction Conditions were:
Examples of the instant invention were evaluated in JAK1 and JAK2 in vitro binding assays.

Sequence of JAK2 (O60674 849-1124): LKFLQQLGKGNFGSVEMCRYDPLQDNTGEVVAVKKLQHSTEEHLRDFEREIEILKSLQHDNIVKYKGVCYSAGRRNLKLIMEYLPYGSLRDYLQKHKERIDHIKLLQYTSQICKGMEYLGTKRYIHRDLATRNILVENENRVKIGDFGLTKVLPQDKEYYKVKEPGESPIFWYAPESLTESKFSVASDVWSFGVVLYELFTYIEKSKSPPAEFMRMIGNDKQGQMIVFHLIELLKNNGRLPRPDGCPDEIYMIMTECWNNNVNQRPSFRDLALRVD
Sequence of JAK1 (P23458 875-1153): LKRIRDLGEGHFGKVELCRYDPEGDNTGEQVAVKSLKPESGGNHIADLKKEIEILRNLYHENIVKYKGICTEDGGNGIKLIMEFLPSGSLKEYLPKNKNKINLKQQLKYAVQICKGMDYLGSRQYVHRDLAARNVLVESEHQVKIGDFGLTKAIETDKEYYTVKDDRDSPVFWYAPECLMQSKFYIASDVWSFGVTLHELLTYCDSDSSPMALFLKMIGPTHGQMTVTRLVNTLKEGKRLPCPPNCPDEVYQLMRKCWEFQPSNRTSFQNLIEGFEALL

Turning to `N#C[C@H]1CCCC[C@@H]1n1nc(Nc2ccc(C(O)C(F)(F)F)cc2)c2c(=O)[nH]ccc21` (single isomer, unassigned) [Example 3-8], the IC50 (as a rule, the point on the concentration scale where inhibition reaches its midpoint) on JAK1 is 0.13 nM; at JAK2 it was 0.82 nM.

Take `N#C[C@H]1CCCC[C@@H]1n1nc(Nc2ccc(C(O)C(F)(F)F)cc2)c2c(=O)[nH]ccc21` (single isomer, unassigned) [Example 3-9, (1S,2S)-2-[4-oxo-3-({4-[(1S or 1R)-2,2,2-trifluoro-1-hydroxyethyl]phenyl}amino)-4,5-dihydro-1H-pyrazolo[4,3-c]pyridin-1-yl]cyclohexanecarbonitrile]: the IC50 came out at 0.081 nM on JAK1 and 0.54 nM on JAK2.

Turning to `N#C[C@H]1CCCC[C@@H]1n1nc(Nc2ccc3c(c2)C(O)C2(CCCCC2)S3(=O)=O)c2c(=O)[nH]ccc21` (single isomer, unassigned) [Example 3-175, (1S,2S)-2-(3-{[(3R or 3S)-3-hydroxy-1,1-dioxido-3H-spiro[1-benzothiophene-2,1′-cyclohexan]-5-yl]amino}-4-oxo-4,5-dihydro-1H-pyrazolo[4,3-c]pyridin-1-yl)cyclohexanecarbonitrile], at JAK2, the IC50 was 0.26 nM.

Take `CC(C)C(c1ccc(Nc2nn([C@H]3CCCC[C@@H]3C#N)c3cc[nH]c(=O)c23)cc1)n1ccnn1` (single isomer, unassigned) [Example 15-23, (1S,2S)-2-[3-({4-[(1R or 1S)-2-methyl-1-(1H-1,2,3-triazol-1-yl)propyl]phenyl}amino)-4-oxo-4,5-dihydro-1H-pyrazolo[4,3-c]pyridin-1-yl]cyclohexanecarbonitrile]: the IC50 at JAK2 came out at 0.25 nM.

With `CC(C)C(c1ccc(Nc2nn([C@H]3CCCC[C@@H]3C#N)c3cc[nH]c(=O)c23)cc1)n1ccnn1` (single isomer, unassigned) [Example 15-24, (1S,2S)-2-[3-({4-[(1S or 1R)-2-methyl-1-(1H-1,2,3-triazol-1-yl)propyl]phenyl}amino)-4-oxo-4,5-dihydro-1H-pyrazolo[4,3-c]pyridin-1-yl]cyclohexanecarbonitrile], the half-maximal inhibitory concentration (IC50) on JAK2 worked out at 0.27 nM.

`N#C[C@H]1CCCCC[C@@H]1n1nc(Nc2ccc3c(c2)CN(C2CCCC2)C3=O)c2c(=O)[nH]ccc21` (single isomer, unassigned) [Example 15-50, (1S,2S or 1R,2R)-2-{3-[(2-cyclopentyl-1-oxo-2,3-dihydro-1H-isoindol-5-yl)amino]-4-oxo-4,5-dihydro-1H-pyrazolo[4,3-c]pyridin-1-yl}cycloheptanecarbonitrile]: the IC50 at JAK2 was found to be 14 nM.

On to `N#C[C@@H]1CCCCC[C@H]1n1nc(Nc2ccc3c(c2)CN(C2CCCC2)C3=O)c2c(=O)[nH]ccc21` (single isomer, unassigned) [Example 15-52, (1R,2R or 1S,2S)-2-{3-[(2-cyclopentyl-1-oxo-2,3-dihydro-1H-isoindol-5-yl)amino]-4-oxo-4,5-dihydro-1H-pyrazolo[4,3-c]pyridin-1-yl}cycloheptanecarbonitrile], for which the IC50 at JAK2 was 0.3 nM.

`CC(C)(C)S(=O)(=O)c1ccc(Nc2nn([C@H]3CC(F)(F)C[C@H]3C#N)c3cc[nH]c(=O)c23)cc1` (single isomer, unassigned) [Example 22-1, (1R,2S or 1S,2R)-2-(3-((4-(tert-Butylsulfonyl)phenyl)amino)-4-oxo-4,5-dihydro-1H-pyrazolo[4,3-c]pyridin-1-yl)-4,4-difluorocyclopentanecarbonitrile]: the concentration for half-maximal inhibition (IC50) at JAK2 is 3.5 nM.

Take `CC(C)(C)S(=O)(=O)c1ccc(Nc2nn([C@@H]3CC(F)(F)C[C@@H]3C#N)c3cc[nH]c(=O)c23)cc1` (single isomer, unassigned) [Example 22-2, (1S,2R or 1R,2S)-2-(3-((4-(tert-Butylsulfonyl)phenyl)amino)-4-oxo-4,5-dihydro-1H-pyrazolo[4,3-c]pyridin-1-yl)-4,4-difluorocyclopentanecarbonitrile]: at JAK2, the IC50 is 21 nM.

Take `CC(C)(C)S(=O)(=O)c1ccc(Nc2nn([C@@H]3CC(F)(F)C[C@H]3C#N)c3cc[nH]c(=O)c23)cc1` (single isomer, unassigned) [Example 22-3, (1R,2R or 1S,2S)-2-(3-{[4-(tert-butylsulfonyl)phenyl]amino}-4-oxo-4,5-dihydro-1H-pyrazolo[4,3-c]pyridin-1-yl)-4,4-difluorocyclopentanecarbonitrile]: the IC50 at JAK2 was 17 nM.

In the case of `CC(C)(C)S(=O)(=O)c1ccc(Nc2nn([C@H]3CC(F)(F)C[C@@H]3C#N)c3cc[nH]c(=O)c23)cc1` (single isomer, unassigned) [Example 22-4, (1S,2S or 1R,2R)-2-(3-{[4-(tert-butylsulfonyl)phenyl]amino}-4-oxo-4,5-dihydro-1H-pyrazolo[4,3-c]pyridin-1-yl)-4,4-difluorocyclopentanecarbonitrile], on JAK2, the IC50 is 0.35 nM.

`N#C[C@H]1CCCC[C@@H]1n1nc(Nc2ccc(C(O)C(F)F)cc2)c2c(=O)[nH]ccc21` (stereo partly drawn) [Example 3-70, (1S,2S)-2-(3-{[4-(2,2-difluoro-1-hydroxyethyl)phenyl]amino}-4-oxo-4,5-dihydro-1H-pyrazolo[4,3-c]pyridin-1-yl)cyclohexanecarbonitrile]: the IC50 on JAK2 amounted to 0.61 nM.

On to `CC(O)(CCO)c1cc(Nc2nn([C@H]3CCCC[C@@H]3C#N)c3cc[nH]c(=O)c23)ccc1S(C)(=O)=O` (stereo partly drawn) [Example 3-86, (1S,2S)-2-(3-{[3-(1,3-dihydroxy-1-methylpropyl)-4-(methylsulfonyl)phenyl]amino}-4-oxo-4,5-dihydro-1H-pyrazolo[4,3-c]pyridin-1-yl)cyclohexanecarbonitrile], for which the IC50 on JAK2 worked out at 7.6 nM.

In the case of `N#C[C@H]1CCCC[C@@H]1n1nc(Nc2ccc3c(c2)CCNC3)c2c(=O)[nH]ccc21` [Example 3-156, (1S,2S)-2-[4-oxo-3-(1,2,3,4-tetrahydroisoquinolin-6-ylamino)-4,5-dihydro-1H-pyrazolo[4,3-c]pyridin-1-yl]cyclohexanecarbonitrile], the IC50 on JAK2 came to 2.6 nM.

`C[C@H](N[C@@H]1CC[C@H](n2nc(Nc3ccc(Cl)c(F)c3)c3c(=O)[nH]ccc32)[C@@H](C#N)C1)C1CC1` [Example 5-5, (1S,2S,5R)-2-(3-((4-chloro-3-fluorophenyl)amino)-4-oxo-4,5-dihydro-1H-pyrazolo[4,3-c]pyridin-1-yl)-5-(((S)-1-cyclopropylethyl)amino)cyclohexanecarbonitrile]: the half-inhibitory concentration (IC50) at JAK2 was found to be 113 nM.

As to `C[C@H](N[C@H]1CC[C@H](n2nc(Nc3ccc(Cl)c(F)c3)c3c(=O)[nH]ccc32)[C@@H](C#N)C1)C1CC1` [Example 5-6, (1S,2S,5S)-2-(3-((4-chloro-3-fluorophenyl)amino)-4-oxo-4,5-dihydro-1H-pyrazolo[4,3-c]pyridin-1-yl)-5-(((S)-1-cyclopropylethyl)amino)cyclohexanecarbonitrile], on JAK2, the 50% inhibitory concentration (IC50) is 55 nM.

On to `N#C[C@H]1C[C@H](N2CCC2)CC[C@@H]1n1nc(Nc2ccc(Cl)cc2)c2c(=O)[nH]ccc21` [Example 5-17, (1S,2S,5R)-5-(azetidin-1-yl)-2-(3-((4-chlorophenyl)amino)-4-oxo-4,5-dihydro-1H-pyrazolo[4,3-c]pyridin-1-yl)cyclohexanecarbonitrile], for which the IC50 on JAK2 came to 33 nM.

For the compound `N#C[C@H]1C[C@@H](N2CCC2)CC[C@@H]1n1nc(Nc2ccc(Cl)cc2)c2c(=O)[nH]ccc21` [Example 5-18, (1S,2S,5S)-5-(azetidin-1-yl)-2-(3-((4-chlorophenyl)amino)-4-oxo-4,5-dihydro-1H-pyrazolo[4,3-c]pyridin-1-yl)cyclohexanecarbonitrile], the half-inhibitory concentration (IC50) on JAK2 came to 13 nM.
